biological target: T1, human PAH with the R408W mutation (Homo sapiens, UniProt P00439, R408W); test: Cell Based Phenylalanine Flux Assay; conditions: A375 cells expressing human R408W PAH; 24 hrs compound incubation; 13C-Tyrosine by LC-MS; average where tested multiple times; read-out: AC50;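 note: after compound treatment, cells received sepiapterin plus isotope-labelled Phenylalanine for 4 hours, then labelled Tyrosine in the medium was quantified, 10-point 2-fold dilution series run in duplicate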
T1 construct: expressed in transfected cells
T1 sequence (P00439 1-452 R408W): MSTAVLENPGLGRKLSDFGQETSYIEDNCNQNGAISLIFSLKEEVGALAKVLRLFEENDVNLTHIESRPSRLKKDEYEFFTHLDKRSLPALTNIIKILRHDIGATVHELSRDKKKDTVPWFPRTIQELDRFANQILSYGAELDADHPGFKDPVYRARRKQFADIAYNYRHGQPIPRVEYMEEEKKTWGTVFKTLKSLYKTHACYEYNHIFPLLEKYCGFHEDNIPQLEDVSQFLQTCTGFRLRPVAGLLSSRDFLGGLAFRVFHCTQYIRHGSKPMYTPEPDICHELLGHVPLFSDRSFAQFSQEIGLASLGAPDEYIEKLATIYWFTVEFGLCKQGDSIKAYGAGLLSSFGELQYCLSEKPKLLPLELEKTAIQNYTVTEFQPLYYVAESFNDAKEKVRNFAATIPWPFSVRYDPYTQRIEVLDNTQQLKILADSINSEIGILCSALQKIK

AC50	Structure (SMILES)
> 5000 nM	O=C(c1nnc(-c2cccnc2)o1)N1CCc2[nH]cnc2[C@@H]1c1cc2c(F)cccn2n1 [Example 897, (R)-(4-(4-fluoropyrazolo[1,5-a]pyridin-2-yl)-6,7-dihydro-1H-imidazo[4,5-c]pyridin-5(4H)-yl)(5-(pyridin-3-yl)-1,3,4-oxadiazol-2-yl)methanone]
> 5000 nM	Cc1cc(C(=O)N2CCc3[nH]cnc3[C@@H]2c2cc3c(C)cccn3n2)n(C)n1 [Example 901, (R)-(1,3-dimethyl-1H-pyrazol-5-yl)(4-(4-methylpyrazolo[1,5-a]pyridin-2-yl)-6,7-dihydro-1H-imidazo[4,5-c]pyridin-5(4H)-yl)methanone]
< 500 nM	O=C(c1nnc(-c2ncccc2F)o1)N1CCc2[nH]cnc2[C@H]1c1cc2c(C(F)(F)F)cccn2n1 [Example 905, (S)-(5-(3-fluoropyridin-2-yl)-1,3,4-oxadiazol-2-yl)(4-(4-(trifluoromethyl)pyrazolo[1,5-a]pyridin-2-yl)-6,7-dihydro-1H-imidazo[4,5-c]pyridin-5(4H)-yl)methanone]
< 500 nM	O=C(c1nnc(-c2cnn(C(F)F)c2)o1)N1CCc2[nH]cnc2[C@H]1c1cc2c(C(F)(F)F)cccn2n1 [Example 906, (S)-(5-(1-(difluoromethyl)-1H-pyrazol-4-yl)-1,3,4-oxadiazol-2-yl)(4-(4-(trifluoromethyl)pyrazolo[1,5-a]pyridin-2-yl)-6,7-dihydro-1H-imidazo[4,5-c]pyridin-5(4H)-yl)methanone]
< 500 nM	O=C(c1nnc(-c2ccn(C(F)F)n2)o1)N1CCc2[nH]cnc2[C@H]1c1cc2c(C(F)(F)F)cccn2n1 [Example 909, (S)-(5-(1-(difluoromethyl)-1H-pyrazol-3-yl)-1,3,4-oxadiazol-2-yl)(4-(4-(trifluoromethyl)pyrazolo[1,5-a]pyridin-2-yl)-6,7-dihydro-1H-imidazo[4,5-c]pyridin-5(4H)-yl)methanone]
500 to 1000 nM	COc1ccc(-c2nnc(C(=O)N3CCc4[nH]cnc4[C@H]3c3cc4cccc(C)n4n3)o2)nc1 [Example 910, (S)-(5-(5-methoxypyridin-2-yl)-1,3,4-oxadiazol-2-yl)(4-(7-methylpyrazolo[1,5-a]pyridin-2-yl)-6,7-dihydro-1H-imidazo[4,5-c]pyridin-5(4H)-yl)methanone]
> 5000 nM	Cc1cccc2cc([C@H]3c4nc[nH]c4CCN3C(=O)c3nnc(-c4ncccc4F)o3)nn12 [Example 913, (R)-(5-(3-fluoropyridin-2-yl)-1,3,4-oxadiazol-2-yl)(4-(7-methylpyrazolo[1,5-a]pyridin-2-yl)-6,7-dihydro-1H-imidazo[4,5-c]pyridin-5(4H)-yl)methanone]
500 to 1000 nM	Cc1cccc2cc([C@@H]3c4nc[nH]c4CCN3C(=O)c3nnc(-c4cnn(C(F)F)c4)o3)nn12 [Example 914, (S)-(5-(1-(difluoromethyl)-1H-pyrazol-4-yl)-1,3,4-oxadiazol-2-yl)(4-(7-methylpyrazolo[1,5-a]pyridin-2-yl)-6,7-dihydro-1H-imidazo[4,5-c]pyridin-5(4H)-yl)methanone]
< 500 nM	COc1cccn2nc([C@@H]3c4nc[nH]c4CCN3C(=O)c3cc(C)nn3C)cc12 [Example 918, (S)-(1,3-dimethyl-1H-pyrazol-5-yl)(4-(4-methoxypyrazolo[1,5-a]pyridin-2-yl)-6,7-dihydro-1H-imidazo[4,5-c]pyridin-5(4H)-yl)methanone]
< 500 nM	Cc1cccn2nc([C@@H]3c4nc[nH]c4CCN3C(=O)c3nnc(C(C)(C)F)o3)cc12 [Example 922, (S)-(5-(2-fluoropropan-2-yl)-1,3,4-oxadiazol-2-yl)(4-(4-methylpyrazolo[1,5-a]pyridin-2-yl)-6,7-dihydro-1H-imidazo[4,5-c]pyridin-5(4H)-yl)methanone]

The remaining lines, values behind:

Structure (SMILES)	AC50
Cc1cccn2nc([C@H]3c4nc[nH]c4CCN3C(=O)c3nnc(-c4cccnc4)o3)cc12 [Example 895, (R)-(4-(4-methylpyrazolo[1,5-a]pyridin-2-yl)-6,7-dihydro-1H-imidazo[4,5-c]pyridin-5(4H)-yl)(5-(pyridin-3-yl)-1,3,4-oxadiazol-2-yl)methanone]	> 5000 nM
O=C(c1nnc(-c2cccnc2)o1)N1CCc2[nH]cnc2[C@H]1c1cc2c(F)cccn2n1 [Example 896, (S)-(4-(4-fluoropyrazolo[1,5-a]pyridin-2-yl)-6,7-dihydro-1H-imidazo[4,5-c]pyridin-5(4H)-yl)(5-(pyridin-3-yl)-1,3,4-oxadiazol-2-yl)methanone]	< 500 nM
COc1cccn2nc([C@@H]3c4nc[nH]c4CCN3C(=O)c3ccnn3-c3ccccn3)cc12 [Example 898, (S)-(4-(4-methoxypyrazolo[1,5-a]pyridin-2-yl)-6,7-dihydro-1H-imidazo[4,5-c]pyridin-5(4H)-yl)(1-(pyridin-2-yl)-1H-pyrazol-5-yl)methanone]	< 500 nM
Cc1cc(C(=O)N2CCc3[nH]cnc3[C@H]2c2cc3c(C)cccn3n2)n(C)n1 [Example 900, (S)-(1,3-dimethyl-1H-pyrazol-5-yl)(4-(4-methylpyrazolo[1,5-a]pyridin-2-yl)-6,7-dihydro-1H-imidazo[4,5-c]pyridin-5(4H)-yl)methanone]	< 500 nM
Cn1cc(-c2nc(C(F)F)c(C(=O)N3CCc4[nH]cnc4[C@H]3c3cc4c(F)cccn4n3)o2)cn1 [Example 902, (S)-(4-(difluoromethyl)-2-(1-methyl-1H-pyrazol-4-yl)oxazol-5-yl)(4-(4-fluoropyrazolo[1,5-a]pyridin-2-yl)-6,7-dihydro-1H-imidazo[4,5-c]pyridin-5(4H)-yl)methanone]	< 500 nM
Cn1cc(-c2nc(C(F)F)c(C(=O)N3CCc4[nH]cnc4[C@@H]3c3cc4c(F)cccn4n3)o2)cn1 [Example 903, (R)-(4-(difluoromethyl)-2-(1-methyl-1H-pyrazol-4-yl)oxazol-5-yl)(4-(4-fluoropyrazolo[1,5-a]pyridin-2-yl)-6,7-dihydro-1H-imidazo[4,5-c]pyridin-5(4H)-yl)methanone]	1000 to 5000 nM
O=C(c1nnc(-c2ncccc2F)o1)N1CCc2[nH]cnc2[C@@H]1c1cc2c(C(F)(F)F)cccn2n1 [Example 904, (R)-(5-(3-fluoropyridin-2-yl)-1,3,4-oxadiazol-2-yl)(4-(4-(trifluoromethyl)pyrazolo[1,5-a]pyridin-2-yl)-6,7-dihydro-1H-imidazo[4,5-c]pyridin-5(4H)-yl)methanone]	> 5000 nM
O=C(c1nnc(-c2cnn(C(F)F)c2)o1)N1CCc2[nH]cnc2[C@@H]1c1cc2c(C(F)(F)F)cccn2n1 [Example 907, (R)-(5-(1-(difluoromethyl)-1H-pyrazol-4-yl)-1,3,4-oxadiazol-2-yl)(4-(4-(trifluoromethyl)pyrazolo[1,5-a]pyridin-2-yl)-6,7-dihydro-1H-imidazo[4,5-c]pyridin-5(4H)-yl)methanone]	> 5000 nM
O=C(c1nnc(-c2ccn(C(F)F)n2)o1)N1CCc2[nH]cnc2[C@@H]1c1cc2c(C(F)(F)F)cccn2n1 [Example 908, (R)-(5-(1-(difluoromethyl)-1H-pyrazol-3-yl)-1,3,4-oxadiazol-2-yl)(4-(4-(trifluoromethyl)pyrazolo[1,5-a]pyridin-2-yl)-6,7-dihydro-1H-imidazo[4,5-c]pyridin-5(4H)-yl)methanone]	1000 to 5000 nM
COc1ccc(-c2nnc(C(=O)N3CCc4[nH]cnc4[C@@H]3c3cc4cccc(C)n4n3)o2)nc1 [Example 911, (R)-(5-(5-methoxypyridin-2-yl)-1,3,4-oxadiazol-2-yl)(4-(7-methylpyrazolo[1,5-a]pyridin-2-yl)-6,7-dihydro-1H-imidazo[4,5-c]pyridin-5(4H)-yl)methanone]	> 5000 nM
Cc1nc(C(=O)N2CCc3[nH]cnc3[C@H]2c2cc3c(C)cccn3n2)n(C)n1 [Example 916, (S)-(1,3-dimethyl-1H-1,2,4-triazol-5-yl)(4-(4-methylpyrazolo[1,5-a]pyridin-2-yl)-6,7-dihydro-1H-imidazo[4,5-c]pyridin-5(4H)-yl)methanone]	< 500 nM
COc1cccn2nc([C@H]3c4nc[nH]c4CCN3C(=O)c3cc(C)nn3C)cc12 [Example 919, (R)-(1,3-dimethyl-1H-pyrazol-5-yl)(4-(4-methoxypyrazolo[1,5-a]pyridin-2-yl)-6,7-dihydro-1H-imidazo[4,5-c]pyridin-5(4H)-yl)methanone]	> 5000 nM
Cn1cnc(-c2nc(C(F)F)c(C(=O)N3CCc4[nH]cnc4[C@H]3c3cc4c(F)cccn4n3)o2)c1 [Example 921, (S)-(4-(difluoromethyl)-2-(1-methyl-1H-imidazol-4-yl)oxazol-5-yl)(4-(4-fluoropyrazolo[1,5-a]pyridin-2-yl)-6,7-dihydro-1H-imidazo[4,5-c]pyridin-5(4H)-yl)methanone]	< 500 nM
Cc1cccn2nc([C@H]3c4nc[nH]c4CCN3C(=O)c3nnc(C(C)(C)F)o3)cc12 [Example 923, (R)-(5-(2-fluoropropan-2-yl)-1,3,4-oxadiazol-2-yl)(4-(4-methylpyrazolo[1,5-a]pyridin-2-yl)-6,7-dihydro-1H-imidazo[4,5-c]pyridin-5(4H)-yl)methanone]	> 5000 nM
Cc1cccn2nc([C@@H]3c4nc[nH]c4CCN3C(=O)c3nnc(C4CC4)o3)cc12 [Example 924, (S)-(5-cyclopropyl-1,3,4-oxadiazol-2-yl)(4-(4-methylpyrazolo[1,5-a]pyridin-2-yl)-6,7-dihydro-1H-imidazo[4,5-c]pyridin-5(4H)-yl)methanone]	< 500 nM

From patent US20230365592A1 (Agios Pharmaceuticals, Inc., priority 2022, published 2023)
